Laboratory results from US20240082162A1, “PHARMACEUTICAL FORMULATIONS OF PILOCARPINE R-(+)-LIPOATE” (Cellix Bio Private Limited, priority 2020, published 2024).
Values joined by “and” are separate entries in the source; they are usually repeats but may differ in a detail not shown here. Equal values may be shown once. Where a name gives a salt, the structure may show the parent alone.

System: A-253 human salivary gland cell line
Experiment: iROS assay (DCFH-DA), H2O2-induced oxidative stress in A-253 cells
Type: cell-based
Conditions: for iROS assay - normalised data vs H2O2 (single values) / iROS assay - normalised data vs H2O2, Average / iROS assay - normalized data (single values) / iROS assay - normalized data, Average: H2O2(1 mM), 24 hours; for iROS assay - normalised data vs H2O2 (single values) / iROS assay - normalised data vs H2O2, Average: H2O2 alone = 1; for iROS assay - normalized data (single values) / iROS assay - normalized data, Average: unstimulated cells = 1; for Effect on iROS induced by H2O2 (in words): A-253 cells, 3-1000 μM
Description: Objective: The objective of this study was to investigate the effect of the test compound (CLX 156), on H2O2-induced oxidative stress in human submaxillary gland (HSG) cell line; A-253 cell line, in comparison with pilocarpine hydrochloride. Method: A-253 human salivary gland cell line was cultured in McCoy's 5a Medium Modified (ATCC) with 10% HI-FBS according to manufacturer's guidelines at 37° C. in the presence of 5% CO 2 in a humified incubator. The cells were sub-cultured using Trypsin-EDTA and 10,000 cells seeded into each 48 well cell culture plates with a media volume of 500 μl. The cells were allowed to grow for 48 hours. After 48 hours of culture, the cells were pre-incubated for 1 hour with the positive, reference and test compounds at the desired concentrations (see table 1) followed by the addition of 1 mM H2O2 to the culture media (without the removal of test compounds) to induce oxidative stress. The incubation was continued for 24 hours. After 24 hours of treatment with H2O2, the cells were used to assess iROS as described below. This is a cell-based assay for measuring hydroxyl, peroxyl, or other reactive oxygen species activity within a cell. The assay employs the cell-permeable fluorogenic probe 2′, 7′-Dichlorodihydrofluorescin diacetate (DCFH-DA). In brief, DCFH-DA is diffused into cells and is deacetylated by cellular esterases to non-fluorescent 2′,7′-Dichlorodihydrofluorescin (DCFH), which is rapidly oxidized to highly fluorescent 2′,7′-Dichlorodihydrofluorescein (DCF) by ROS. The fluorescence intensity is proportional to the ROS levels within the cell cytosol. OxiSelect˜ Intracellular ROS Assay Kit was used according to the manufacturer's guidelines (Cell Biolabs). In short, at Day 3 the cells were washed several times with PBS and then treated with 1X DCFH-DA in media and incubated for 30-60 minutes. After DCFH-DA treatment, the oxidative stress was induced by adding 1 mM H2O2 and the fluorescence signals measured after 24 hours using a plate reader.

| SMILES | iROS assay - normalised data vs H2O2, Average (3 μM) | iROS assay - normalized data, Average (3 μM) | iROS assay - normalised data vs H2O2, Average (10 μM) | iROS assay - normalized data, Average (10 μM) | iROS assay - normalised data vs H2O2, Average (30 μM) | iROS assay - normalized data, Average (30 μM) | iROS assay - normalised data vs H2O2, Average (100 μM) | iROS assay - normalized data, Average (100 μM) | iROS assay - normalised data vs H2O2, Average (300 μM) | iROS assay - normalized data, Average (300 μM) | iROS assay - normalised data vs H2O2, Average (1000 μM) | iROS assay - normalized data, Average (1000 μM) | Effect on iROS induced by H2O2 (in words) | also measured |
| --- | --- | --- | --- | --- | --- | --- | --- | --- | --- | --- | --- | --- | --- | --- |
| CC[C@@H]1C(=O)OC[C@@H]1Cc1cncn1C.O=C(O)CCCC[C@@H]1CCSS1 [CLX 156, Pilocarpine-R-(+)-lipoate] | 0.8035 | 6.0747 | 0.7206 | 5.4481 | 0.7536 | 5.6971 | 0.7541 | 5.7012 | 0.6581 | 4.9751 | 0.4638 | 3.5062 | significantly inhibited the iROS induced by H2O2 in A-253 cells in a concentration dependent manner | iROS assay - normalised data vs H2O2 (single values) (3 μM): 0.8216 and 0.8019 and 0.7870; iROS assay - normalized data (single values) (3 μM): 6.2116 and 6.0622 and 5.9502; iROS assay - normalised data vs H2O2 (single values) (10 μM): 0.7047 and 0.6981 and 0.7591; iROS assay - normalized data (single values) (10 μM): 5.3278 and 5.2780 and 5.7386; iROS assay - normalised data vs H2O2 (single values) (30 μM): 0.7294 and 0.7558 and 0.7755; iROS assay - normalized data (single values) (30 μM): 5.5145 and 5.7137 and 5.8631; iROS assay - normalised data vs H2O2 (single values) (100 μM): 0.7887 and 0.7377 and 0.7360; iROS assay - normalized data (single values) (100 μM): 5.9627 and 5.5768 and 5.5643; iROS assay - normalised data vs H2O2 (single values) (300 μM): 0.6224 and 0.6965 and 0.6553; iROS assay - normalized data (single values) (300 μM): 4.7054 and 5.2656 and 4.9544; iROS assay - normalised data vs H2O2 (single values) (1000 μM): 0.4676 and 0.4396 and 0.4841; iROS assay - normalized data (single values) (1000 μM): 3.5353 and 3.3237 and 3.6598; Inhibition of iROS compared with Pilocarpine HCL (in words) (A-253 salivary gland cell culture model): superior to Pilocarpine HCL in inhibiting the iROS induced by H2O2; IC50 (H2O2-induced iROS in A-253 cells, read-out: IC50 for Intracellular ROS (iROS) inhibition): 552 µM |
| CC[C@@H]1C(=O)OC[C@@H]1Cc1cncn1C [Pilocarpine HCl, pilocarpine hydrochloride, reference compound] | 1.0401 | 7.8631 | 0.9018 | 6.8174 | 0.8952 | 6.7676 | 0.9226 | 6.9751 | 0.9265 | 7.0041 | 0.9040 | 6.8340 | comparatively less in magnitude and showed no clear dose response | iROS assay - normalised data vs H2O2 (single values) (3 μM, hydrochloride): 0.9995 and 1.0274 and 1.0933; iROS assay - normalized data (single values) (3 μM, hydrochloride): 7.5560 and 7.7676 and 8.2656; iROS assay - normalised data vs H2O2 (single values) (10 μM, hydrochloride): 0.8825 and 0.8760 and 0.9468; iROS assay - normalized data (single values) (10 μM, hydrochloride): 6.6722 and 6.6224 and 7.1577; iROS assay - normalised data vs H2O2 (single values) (30 μM, hydrochloride): 0.8941 and 0.8332 and 0.9583; iROS assay - normalized data (single values) (30 μM, hydrochloride): 6.7593 and 6.2988 and 7.2448; iROS assay - normalised data vs H2O2 (single values) (100 μM, hydrochloride): 0.9550 and 0.9336 and 0.8793; iROS assay - normalized data (single values) (100 μM, hydrochloride): 7.2199 and 7.0581 and 6.6473; iROS assay - normalised data vs H2O2 (single values) (300 μM, hydrochloride): 0.9040 and 0.8858 and 0.9896; iROS assay - normalized data (single values) (300 μM, hydrochloride): 6.8340 and 6.6971 and 7.4813; iROS assay - normalised data vs H2O2 (single values) (1000 μM, hydrochloride): 0.8924 and 0.8842 and 0.9352; iROS assay - normalized data (single values) (1000 μM, hydrochloride): 6.7469 and 6.6846 and 7.0705 |
